Source: patent US9163240B2, “SR-BI mutation as a predictor of low progesterone levels and poor fetal viability during pregnancy” (The Johns Hopkins University, priority 2009, dated 2015)

What was measured:
HGL5 cells = experiment: Progesterone secretion in HGL5 granulosa cells (RIA); format: cell-based, human; conditions: for rescue of impaired progesterone secretion in SR-BI KD cells: SR-BI KD cells incubated with the agent
female knockout mice = conditions: probucol added in the chow diet; cited from earlier work

Compound | rescue of impaired progesterone secretion in SR-BI KD cells (HGL5 cells) | other results
CC(C)CCC(O)[C@@H](C)[C@H]1CC[C@H]2[C@@H]3CC=C4C[C@@H](O)CC[C@]4(C)[C@H]3CC[C@]12C (stereo partly shown) [22-OH cholesterol, 22-hydroxycholesterol] | did not overcome this impairment | 
C=C[C@@]1(C)CC(=O)[C@]2(O)[C@@]3(C)[C@@H](O)CCC(C)(C)[C@@H]3[C@H](O)[C@H](OC(C)=O)[C@@]2(C)O1 [Fo, Forskolin] |  | progesterone secretion higher as compared with DMSO (HGL5 cells; scrambled cells, 24 h, Fo 10 μM, serum 10%, HDL or LDL 50 μg protein/ml, p<0.001): > 2 fold
CCCC(=O)Nc1ncnc2c1ncn2[C@@H]1O[C@@H]2COP(=O)(O)O[C@H]2[C@H]1OC(=O)CCC [dibutryl cAMP] | did not overcome the defect | 
CC(C)(Sc1cc(C(C)(C)C)c(O)c(C(C)(C)C)c1)Sc1cc(C(C)(C)C)c(O)c(C(C)(C)C)c1 [probucol] |  | fertility of SR-BI knockout female mice (female knockout mice): restored
